From patent publication US20160151444A1, “METHODS FOR THE PREVENTION OR TREATMENT OF VESSEL OCCLUSION INJURY” (Stealth Peptides International, Inc., priority 2009, published 2016)
Non-standard residues stand in square brackets, D forms with d. No end group written: not given here.

How the values were obtained:
[1] = system: mu-opioid receptor; conditions: stated in the description, no data shown; cited from earlier work
[2] = system: New Zealand white rabbits; experiment: Rabbit model of acute myocardial ischemia and reperfusion (coronary occlusion), infarct size by histomorphometry; format: in vivo
Procedure: New Zealand white rabbits were used in this study. The rabbits were males and >10 weeks in age. Environmental controls in the animal rooms were set to maintain temperatures of 61° to 72° F. and relative humidity between 30% and 70%. Room temperature and humidity were recorded hourly, and monitored daily. There were approximately 10-15 air exchanges per hour in the animal rooms. Photoperiod was 12-hr light/12-hr dark (via fluorescent lighting) with exceptions as necessary to accommodate dosing and data collection. Routine daily observations were performed. Harlan Teklad, Certified Diet (2030C), rabbit diet was provided approximately 180 grams per day from arrival to the facility. In addition, fresh fruits and vegetables were given to the rabbit 3 times a week.
The peptide D-Arg-2′6′-Dmt-Lys-Phe-NH2 (sterile lyophilized powder) was used as the test article. Dosing solutions were formulated at no more than 1 mg/ml, and were delivered via continuous infusion (IV) at a constant rate (e.g., 50 μL/kg/min). Normal saline (0.9% NaCl) was used as a control.
The test/vehicle articles were given intravenously, under general anesthesia, in order to mimic the expected route of administration in the clinical setting of AMI and PTCA. Intravenous infusion was administered via a peripheral vein using a Kd Scientific infusion pump (Holliston, Mass. 01746) at a constant volume (e.g., 50 μL/kg/min).
The study followed a predetermined placebo and sham controlled design. In short, 10-20 healthy, acclimatized, male rabbits were assigned to one of three study arms (approximately 2-10 animals per group). Arm A (n=10, CTRL/PLAC) includes animals treated with vehicle (vehicle; VEH, IV); Arm B (n=10, treated) includes animals treated with peptide; Arm C (n=2, SHAM) includes sham-operated time-controls treated with vehicle (vehicle; VEH, IV) or peptide.
In all cases, treatments were started approximately 10 min after the onset of a 30 min ischemic insult (coronary occlusion) and continued for up to 3 h following reperfusion. In all cases, cardiovascular function was monitored both prior to and during ischemia, as well as for up to 180 min (3 h) post-reperfusion. The experiments were terminated 3 h post-reperfusion (end of study); irreversible myocardial injury (infarct size by histomorphometery) at this time-point was evaluated, and was the primary-end-point of the study.
General anesthesia was induced intramuscularly (IM) with a ketamine (˜35-50 mg/kg)/xylazine (˜5-10 mg/kg) mixture. A venous catheter was placed in a peripheral vein (e.g., ear) for the administration of anesthetics. In order to preserve autonomic function, anesthesia was maintained with continuous infusions of propofol (˜8-30 mg/kg/hour) and ketamine (˜1.2-2.4 mg/kg/hr). A cuffed tracheal tube was placed via a tracheotomy (ventral midline incision) and used to mechanically ventilate the lungs with a 95% O2/5% CO2 mixture via a volume-cycled animal ventilator (˜40 breaths/minute with a tidal volume of −12.5 ml/kg) in order to sustain PaCO2 values broadly within the physiological range.
Once a surgical plane of anesthesia was reached, either transthoracic or needle electrodes forming two standard ECG leads (e.g., lead II, aVF, V2) were placed. A cervical cut-down exposed a carotid artery, which was isolated, dissected free from the surrounding tissue and cannulated with a dual-sensor high-fidelity micromanometer catheter (Millar Instruments); the tip of this catheter was advanced into the left-ventricle (LV) retrogradely across the aortic valve, in order to simultaneously determine aortic (root, proximal transducer) and left-ventricular (distal transducer) pressures. The carotid cut-down also exposed the jugular vein, which was cannulated with a hollow injection catheter (for blood sampling). Finally, an additional venous catheter was placed in a peripheral vein (e.g., ear) for the administration of vehicle/test articles. […]

[3] = system: subjects with STEMI and hypertension; experiment: EMBRACE STEMI trial, subjects with anterior STEMI undergoing PCI; hypertensive subgroup compared; format: in vivo, human
Procedure: The EMBRACE STEMI study is known in the art (see e.g., Chakrabarti et al., Am Heart J, 165(4):509-514 (2013), the content of which is incorporate by reference in its entirety). Briefly, the EMBRACE STEMI trial is a multicenter, randomized, double-blind, placebo-controlled study. The study design was approved by institutional and national regulatory bodies and ethical committees. Multiple safety reviews were performed by an independent Data and Safety Monitoring Board throughout the course of the trial. All subjects provided written informed consent prior to randomization.
Subjects aged 18 to 85 years with anterior STEMI undergoing first-time percutaneous coronary intervention (PCI) plus stenting with an anticipated time from ischemic symptoms to time of balloon inflation <4 hours, with >0.1 mV ST-segment elevation in at least 2 contiguous precordial leads were enrolled. Major exclusion criteria included a history of prior myocardial infarction (MI), previous heart failure (e.g., known left ventricle ejection fraction (LVEF)<30% prior to the qualifying infarct), and cardiogenic shock.
To assess efficacy in large MIs that had not sustained reperfusion injury, only subjects who met angiographic and post-PCI inclusion criteria were included in the primary analysis population (PAP) (FIG. 7): (1) the presence of a proximal/mid left anterior descending (LAD) occlusion with pre-PCI TIMI flow 0 or 1 and no visible evidence of significant coronary collateral flow; (2) dilation of only the LAD; (3) successful PCI of the LAD with post-PCI TIMI flow >2; and (4) no evidence of a second MI within 72 hours of the initial PCI which would confound the infarct size determination.
Subjects were randomized in a double blind 1:1 fashion to receive either D-Arg-2′,6′-Dmt-Lys-Phe-NH2 of at 0.05 mg/kg/hr or a control placebo by IV injection (Treatment group: n=58; Control group: n=60). D-Arg-2′,6′-Dmt-Lys-Phe-NH2 was administered >15 minutes, but <60 minutes prior to PCI and for 1 hour following reperfusion. Subjects underwent cardiac magnetic resonance imaging (MRI) at 4±1 days and again at 30±7 days post-PCI. Follow-up visits were conducted at discharge, at 30±7 days, 90±14 days, and 6±1.5 months post-PCI.
The primary end point of the study was infarct size, or the area under the curve (AUC) of creatine kinase-MB (CK-MB) enzyme over 72 hours following PCI with the values log transformed and adjusted for the percent of artery distal to the occlusion and duration of symptoms (two variables known to confound the estimation of infarct size).19-21 Secondary end points included the AUCO-72 of troponin I, peak cardiac enzymes, the ratio of the volume of infarcted myocardium (late contrast gadolinium enhancement) to the left ventricular (LV) mass on cardiac Mill at day 4±1, day 30±7, and the change (4) in ratios from day 4±1 to day 30±7, measures of myocardial structure and function (left ventricular ejection fraction (LVEF), left ventricular end systolic volume (LVESV), and left ventricular end diastolic volume (LVEDV)) at day 4±1, day 30±7, and the change (4) in these measures from day 4±1 to day 30±7, TIMI myocardial perfusion grade (TMPG), TIMI flow grade (TFG), corrected TIMI frame count post-PCI and complete ST-segment elevation resolution (>70%) by the Schroder criteria. Laboratory measures of congestive heart failure (CHF) (N-terminal pro-B type natriuretic […]), and renal function (serum creatinine, estimated glomerular filtration rate, cystatin C, and blood urea nitrogen) were also evaluated.
The incidence of the clinical composite endpoint of all-cause death, new-onset CHF beginning >24 hours post-PCI and within the duration of the index hospitalization, and CHF re-hospitalization was also determined through 30±7 days and 6±1.5 months post-PCI. Safety endpoints included treatment emergent adverse events (TEAE). The pharmacokinetic profile of D-Arg-2′6′-Dmt-Lys-Phe-NH2 was determined based on the drug serum concentration. […]

[4] = system: several mammalian cell types; conditions: energy-independent manner; Zhao et al. 2003; cited from earlier work
[5] = 30 min ischemia, 180 min reperfusion, IV continuous infusion from 10 min of ischemia, n = 10, means with standard errors
[6] = peptide group versus placebo group, p < 0.05

Tyr-D-Arg-Phe-Lys-NH2
Mu-opioid receptor agonist activity [1]: has mu-opioid receptor agonist activity

D-Arg-2′,6′-Dmt-Lys-Phe-NH2 [D-Arg-2′6′-Dmt-Lys-Phe-NH2]
Myocardial Area (%) IA/AR (infarcted area to area of risk) [2, 5]: 24.7 ± 4.7%
Myocardial Area (%) IA/LV (infarcted area to left ventricular area) [2, 5]: 16.2 ± 3.4%
Infarct size compared to the control ([2]; induced cardiac ischemia, FIGS. 4A-4E): decreased infarct size
IA/AR, % versus placebo [2, 6]: −32 ± 13%
IA/LV, % versus placebo [2, 6]: −24 ± 16%
Myocardial salvage with shorter treatment ([2]; treatment for less than 3 hours after reperfusion, i.e., 30 min, data not shown): comparable myocardial salvage
Proportion of complete or partial ST segment resolution ([3]; 24 hours post-PCI, hypertensive subjects, control 88.2%, p=0.05): 100%
Mean infarct volume on cardiac MRI ([3]; day 4±1, 0.05 mg/kg/hr IV, control 52.6±30.2, p=0.03): 35.8 ± 22.8 mL
Mean left ventricle (LV) mass ([3]; hypertensive subjects, 0.05 mg/kg/hr IV, control 162.2±52.4, p=0.08): 141.5±53.2 grams
New onset CHF during the first 8 hours post-PCI ([3]; hypertensive subjects, control 11 incidents): 5 incidents
New onset CHF <24 hours post-PCI ([3]; hypertensive subjects, control 15 incidents): 8 incidents
Myocardial edema on cardiac MRI ([3]; hypertensive subjects, control 60.9±20.5, p=0.053): 48.9±22.0
Mu-opioid receptor agonist activity [1]: does not have mu-opioid receptor agonist activity

2′,6′-Dmt-D-Arg-Phe-Lys-NH2
Penetration of the plasma membrane [4]: readily penetrates the plasma membrane

F[dR]FK-NH2
Mu-opioid receptor agonist activity [1]: does not have mu-opioid receptor agonist activity
